Measurements published in patent US20100092526A1, “NANOEMULSION THERAPEUTIC COMPOSITIONS AND METHODS OF USING THE SAME” (NanoBio Corporation, priority 2008, published 2010).
≈ marks a conversion by molar mass, not a printed value. Marks after values point to notes of the source that are not given here.

Columns and labels:
[1] = system: Pseudomonas aeruginosa; assay: Quantitation of bacterial wound infection in partial thickness burn model; assay type: in vivo, Sprague-Dawley rats; details: burn + P. aeruginosa
[2] = system: Myeloperoxidase; assay: Detection of neutrophil sequestration (Myeloperoxidase assay) in burn model; assay type: in vivo, Sprague-Dawley rats; details: burn wound infected with P. aeruginosa; 32 h
[3] = system: IL1-β, IL-6, TNF-α, CINC-1, CINC-3, IL-10 and TGF-β; assay: Dermal cytokine analysis (ELISA) in burn model; assay type: in vivo, Sprague-Dawley rats
[4] = system: methicillin-resistant Staphylococcus aureus (MRSA); assay: Susceptibility (MIC/MBC) of MRSA clinical isolates; assay type: cell-based; details: Staphylococcus aureus; MRSA isolates; read-out: MIC90
[5] = system: Escherichia coli; assay: MIC/MBC of nanoemulsions against gram-negative isolates (CLSI, alamar blue); assay type: cell-based; details: Escherichia coli (n = 5)
[6] = system: Haemophilus influenzae; assay: Susceptibility (MIC/MBC) of H. influenzae clinical isolates; assay type: cell-based
[7] = system: Burkholderia cepacia; assay: MIC/MBC of nanoemulsions against gram-negative isolates (CLSI, alamar blue); assay type: cell-based; details: Burkholderia cepacia (n = 5), nanoemulsions in the presence of 5 mM EDTA
[8] = system: Stenotrophomonas maltophilia; assay: as above; assay type: cell-based; details: Stenotrophomonas maltophilia (n = 5); nanoemulsions in the presence of 5 mM EDTA
[9] = system: Proteus mirabilis; assay: as above; assay type: cell-based; details: Proteus mirabilis (n = 5)
[10] = system: Acinetobacter baumannii; assay: as above; assay type: cell-based; details: Acinetobacter baumannii (n = 5)
[11] = system: Klebsiella pneumoniae; assay: as above; assay type: cell-based; details: Klebsiella pneumoniae (n = 5)
[12] = system: Pseudomonas aeruginosa; assay: as above; assay type: cell-based; details: Pseudomonas aeruginosa (n = 5)
[13] = nanoemulsions in the presence of 5 mM EDTA

## NCc1ccc(S(N)(=O)=O)cc1 [Sulfamylon, mafenide acetate]
[1]; 32 h
  Animals with CFU's/g > 1 × 10^5, n (%): 2 (20)* n (%)
[1]; topical treatment at 16 and 24 h, harvest at 32 h
  median number of CFUs of bacteria per gram of skin tissue: 3×10^4 CFUs per gram
[2]
  myeloperoxidase (dermal neutrophil sequestration): 0.08 ± 0.02 µg/mL
[3]; burn wound infected with P. aeruginosa, 32 h
  level of IL-10 or TGF-β in the infected burn wound: did not suppress
[3]; infected burn wound
  dermal levels of proinflammatory cytokines (IL-1β, IL-6, TNF-α, CINC-1 or CINC-3) compared to controls: did not result in any significant alteration
[4]
  MIC90: > 128 µg/mL

## CN(C)[C@@H]1C(O)=C(C(N)=O)C(=O)[C@@]2(O)C(O)=C3C(=O)c4c(O)cccc4[C@@](C)(O)[C@H]3C[C@@H]12 [Tetracycline]
[5]
  % resistant: 80.0%
  % susceptible: 20.0%
[5]; [13]
  MIC50: > 8 µg/mL
[6]; H. influenzae isolates of Table 6, nanoemulsion values as μg CPC/ml or μg BA/ml
  MIC Range: 0.5 to 16 µg/mL
[6]; Haemophilus influenzae, strain 30, nanoemulsion values as μg CPC/ml or μg BA/ml
  MIC: 0.5 µg/mL (≈ 1.13 µM)
[6]; Haemophilus influenzae, strain 32, nanoemulsion values as μg CPC/ml or μg BA/ml
  MIC: 2 µg/mL (≈ 4.5 µM)
[6]; Haemophilus influenzae, strain 33, nanoemulsion values as μg CPC/ml or μg BA/ml
  MIC: 1 µg/mL (≈ 2.25 µM)
[6]; Haemophilus influenzae, strain 34, nanoemulsion values as μg CPC/ml or μg BA/ml
  MIC: 1 µg/mL (≈ 2.25 µM)
[6]; Haemophilus influenzae, strain 35, nanoemulsion values as μg CPC/ml or μg BA/ml
  MIC: 0.5 µg/mL (≈ 1.13 µM)
[6]; Haemophilus influenzae, strain 36, nanoemulsion values as μg CPC/ml or μg BA/ml
  MIC: 1 µg/mL (≈ 2.25 µM)
[6]; Haemophilus influenzae, strain 37, nanoemulsion values as μg CPC/ml or μg BA/ml
  MIC: 1 µg/mL (≈ 2.25 µM)
[6]; Haemophilus influenzae, strain 38, nanoemulsion values as μg CPC/ml or μg BA/ml
  MIC: 0.5 µg/mL (≈ 1.13 µM)
[6]; Haemophilus influenzae, strain 41, nanoemulsion values as μg CPC/ml or μg BA/ml
  MIC: 1 µg/mL (≈ 2.25 µM)
[6]; Haemophilus influenzae, strain 42, nanoemulsion values as μg CPC/ml or μg BA/ml
  MIC: 1 µg/mL (≈ 2.25 µM)
[6]; Haemophilus influenzae, strain 49247, nanoemulsion values as μg CPC/ml (P4075EC, W205EC) or μg BA/ml (W205GBA2)
  MIC: 16 µg/mL (≈ 36 µM)
[6]; Haemophilus influenzae, H. influenzae isolates of Table 6, nanoemulsion values as μg CPC/ml or μg BA/ml
  MIC90: 2 µg/mL (≈ 4.5 µM)
[7]
  MIC50: > 8 µg/mL
[7]; in µg/mL
  MIC Range: >8
[8]
  MIC50: > 8 µg/mL
[9]
  % resistant: 100.0%
  % susceptible: 0.0%
[9]; [13]
  MIC50: > 8 µg/mL
[9]; nanoemulsions in the presence of 5 mM EDTA, in µg/mL
  MIC Range: >8
[10]
  % resistant: 20.0%
  % susceptible: 80.0%
[10]; [13]
  MIC50: ≤ 2 µg/mL
[11]
  % resistant: 0.0%
  % susceptible: 100.0%
[11]; [13]
  MIC50: ≤ 2 µg/mL
  MIC Range: <=2-4 ^
[12]
  % resistant: 40.0%
  % susceptible: 0.0%
[12]; [13]
  MIC50: 8 µg/mL
